Data from patent US20250057799A1, “Anti-Inflammatory Methods with Compositions Comprising Site-Specific Isotopically-Modified Fatty Acids” (BioJiva LLC, priority 2021, published 2025).
Entries after “also recorded” stand apart in the source; their conditions may differ.

Test system: LPS-inflicted lung inflammation
Assay: LPS-inflicted lung inflammation model in mice (lung morphometry)
Type: in vivo
Conditions: for interalveolar septa thickness (result in words) / alveolar lumen area (result in words): 6-week dietary course then single intranasal LPS; for interalveolar septa thickness (result in words): compared with control mice without LPS; for alveolar lumen area (result in words): compared with control mice without LPS / H-form; for Partition thickness Me (25%; 75%): 6-week dietary course followed by single intranasal LPS, median
Method: FIGS. 3-6. Groups of female (f) and male (m) mice received a 6-week course of dietary (H) AA or a 6-week course of deuterated arachidonic acid (D6-ARA, 15 mg/day) followed by single intranasal administration of LPS.
COX and LOX inhibitors can be employed to down-regulate this process, with various efficacy. In contrast, the methods of the present disclosure rely on deuteration of the three oxidation prone sites within PUFA molecules, to substantially slow down the rate limiting step of oxidation (both enzymatic and non-enzymatic) via the isotope effect (IE). Made in high yield via a catalytic process, such D-PUFAs were tested in a lipopolysaccharide (LPS)-inflicted lung inflammation model in mice, a well-known lung inflammation model. (See Example 1.)
For example, the mouse LPS model has been used as a model for human acute lung injury (ALI), as the mouse lung parenchyma is damaged by the generation and release of proteases and reactive oxygen and nitrogen species produced by activated lung macrophages and transmigrated neutrophils in the interstitial and alveolar compartments. The end results are microvascular injury and diffuse alveolar damage with intrapulmonary hemorrhage, edema, and fibrin deposition (Johnson and Ward, J. Clin. Invest., (1974), 54:349-357; Flierl et al., Med. Hypothesis Res., (2006), 3:727,738), which are also features in patients with ALI and the acute respiratory distress syndrome (ARDS) (Kabir et al., Shock, (2002), 17:300-303; Ward, Am. J. Pathol., (1996), 149:1081-1086). This LPS model recapitulates aspects of the inflammatory cascades that are associated with pulmonary inflammation associated with lung disease in humans, and so is useful as a screen for compounds that may disrupt these cascades and attenuate or abort the disease process. As discussed herein, in some embodiments, the D-PUFAs of the present disclosure are administered to break the inflammatory cascade of specific cytokines and chemokines known to induce and amplify lung inflammation. Thus, for example, one can experimentally assess the efficacy of the D-PUFAs by examining whether the levels of inflammation associated markers are reduced. Two such markers, monocyte chemoattractant protein (MCP-1), and tumor necrosis factor alpha (TNF-a), are found to be associated with early and chronic infection and inflammation in humans and are mirrored in rodent models of airway inflammation including the mouse LPS pulmonary inflammation model.
LPS treatment promotes inflammation through various mechanisms including secretion of pro-inflammatory cytokines, eicosanoids and induction of ROS. Following induction by the intranasal administration of LPS, an acute lung inflammation quickly follows. […] Such a pronounced inflammatory infiltration of the interalveolar septa contributed to their destruction and more frequent formation of emphysema foci in this group. […] (See FIGS. 3-6.)
The degree of alveolar lumen area changes in both groups of animals depended on gender.

Row | SMILES | interalveolar septa thickness (result in words) | alveolar lumen area (result in words) | alveolar lumen area (result in words) (listed as D-form) | degree of inflammatory lesion of the lungs (D-form compared to H-form, after 6-week course and LPS) | Partition thickness Me (25%; 75%) (females) [μm] | Partition thickness Me (25%; 75%) (males) [μm] | protective / therapeutic effect compared to other deuterated PUFAs (preliminary data (not shown)) | interalveolar septa thickness (result in words) (listed as AA)
1 | [2H]C([2H])(/C=C\CCCCC)/C=C\C([2H])([2H])/C=C\C([2H])([2H])/C=C\CCCC(=O)O [D-ara, 7,7,10,10,13,13-D6-arachidonic acid] | consistent with controls | consistent with controls | decrease in alveoli lumens | lesser degree of inflammatory lesion | 3.6 | 5.55 | better therapeutic effect; also recorded: best protective effect | –
2 | CCCCC/C=C\C/C=C\C/C=C\C/C=C\CCCC(=O)O [H-ara, arachidonic acid, reference compound] | significantly increased | increase | – | – | 9.1 | – | – | increase
